# From ChEMBL document CHEMBL1148992, “KB cell culture I. Role in discovery of antitumor agents from higher plants” (1982)
# System: KB
# Assay: Cytotoxicity against human KB cells
# Type: functional
# Settings: read-out: ED50 (the source's name)
row,Compound,EC50 [µg/mL]
1,COc1ccc2cc1Oc1ccc(cc1)C[C@H]1c3cc(c(OC)cc3CCN1C)Oc1c(OC)c(OC)cc3c1C(C2)N(C)CC3 (mixture of isomers),22
2,COc1ccc2cc1Oc1ccc(cc1)C[C@H]1c3cc(c(OC)cc3CCN1C)Oc1c(OC)c(OC)cc3c1[C@@H](C2)N(C)CC3,10
3,CN[C@H]1CCc2cc(OC)c(OC)c(OC)c2-c2ccc(OC)c(=O)cc21 [DEMECOLCINE],< 0.25
4,COc1ccc2[nH]c3c(C)c4ccncc4c(C)c3c2c1,8.7
5,COC(=O)C[C@](O)(CCCC(C)(C)O)C(=O)O[C@@H]1C(OC)=C[C@]23CCCN2CCc2cc4c(cc2[C@H]13)OCO4 [OMACETAXINE MEPESUCCINATE],3.9
6,COc1cc(C[C@H]2c3cc(OC)c(OC)cc3CCN2C)c(Oc2cc3c(cc2OC)-c2c(OC)c(OC)cc4c2[C@H](C3)N(C)CC4)cc1OC [THALICARPINE],3.7
7,COc1cc2cc(c1Cl)N(C)C(=O)C[C@H](OC(=O)[C@H](C)N(C)C(C)=O)[C@]1(C)O[C@H]1[C@H](C)[C@@H]1C[C@@](O)(NC(=O)O1)[C@H](OC)/C=C/C=C(\C)C2 [MAYTANSINE],0.51
8,COc1cc2c(c(OC)c1OC)-c1ccc(OC)c(=O)cc1[C@@H](NC(C)=O)CC2 [COLCHICINE],0.23
9,CC[C@]1(O)C[C@H]2CN(CCc3c([nH]c4ccccc34)[C@@](C(=O)OC)(c3cc4c(cc3OC)N(C=O)[C@H]3[C@@](O)(C(=O)OC)[C@H](OC(C)=O)[C@]5(CC)C=CCN6CC[C@]43[C@@H]65)C2)C1 [VINCRISTINE],1.3
10,COc1cc2c[n+](C)c3c4cc5c(cc4ccc3c2cc1OC)OCO5.[Cl-] [NITIDINE CHLORIDE],4.3
11,COc1cc2c3c(c4ccc(OC)c(OC)c4c2cc1OC)CN1CCC[C@@H]1C3 [TYLOCREBRINE],0.013
12,COc1ccc(C[C@H]2C(=O)N[C@@H](C)C(=O)N(C)[C@@H]3C(=O)N(C)[C@@H](Cc4ccc(O)c(c4)Oc4ccc(cc4)[C@@H]3O)C(=O)N[C@@H](C)C(=O)N[C@@H](C)C(=O)N2C)cc1 [BOUVARDIN],8.8
13,CC[C@@]1(O)C(=O)OCc2c1cc1n(c2=O)Cc2cc3ccccc3nc2-1 [CAMPTOTHECIN],2.3
14,CC(=O)O[C@H]1C(=O)[C@@]2(C)[C@H]([C@H](OC(=O)c3ccccc3)[C@]3(O)C[C@H](OC(=O)[C@H](O)[C@@H](NC(=O)c4ccccc4)c4ccccc4)C(C)=C1C3(C)C)[C@]1(OC(C)=O)CO[C@@H]1C[C@@H]2O [PACLITAXEL],8.9
15,C[C@H]1C(=O)O[C@@H]2CCN3CC=C(COC(=O)[C@](C)(O)[C@]1(C)O)[C@H]23 [MONOCROTALINE],> 100
16,COc1cc([C@@H]2c3cc4c(cc3[C@H](O)[C@H]3COC(=O)[C@H]23)OCO4)cc(OC)c1OC [PODOFILOX],< 1
17,Cc1c2ccncc2c(C)c2c1[nH]c1ccccc12 [ELLIPTECINE],0.36
18,CC(C)[C@]12O[C@H]1[C@@H]1O[C@]13[C@]1(O[C@H]1C[C@H]1C4=C(CC[C@@]13C)C(=O)OC4)[C@@H]2O [TRIPTOLIDE],2.6
19,CC(=O)O[C@H]1C(=O)O[C@@H]2C[C@H]3C(C)=CC(=O)[C@@H](O)[C@]3(C)[C@H]3[C@]4(O)OC[C@]32[C@@H]1[C@@H](C)[C@H]4O [HOLACANTHONE],6.8
20,COC(=O)[C@@]12OC[C@]34[C@H]([C@@H](O)[C@@H]1O)[C@@]1(C)CC(=O)C(O)=C(C)[C@@H]1C[C@H]3OC(=O)[C@H](OC(=O)/C=C(\C)C(C)C)[C@@H]24 [BRUCEANTIN],17
21,CC[C@H]1CN2CCc3cc(OC)c(OC)cc3[C@@H]2C[C@@H]1C[C@H]1NCCc2cc(OC)c(OC)cc21 [EMETINE],< 1
22,CC(C)[C@]12O[C@H]1[C@@H]1O[C@]13[C@]1(O[C@H]1C[C@H]1C4=C(C(=O)OC4)[C@@H](O)C[C@@]13C)[C@@H]2O [TRIPDIOLIDE],2.8

# System: P388
# Assay: In vivo cytotoxicity against mouse P388 cells relative to control
# Type: functional
# Settings: not given
row,Compound,T/C [%]
1,CC(C)[C@](O)(C(=O)OCC1=CC[N+]2([O-])CC[C@@H](O)[C@@H]12)[C@H](C)O (stereo partly specified) [INDICINE N-OXIDE],262
2,COc1cc2c[n+](C)c3c4cc(OC)c(OC)cc4ccc3c2cc1OC,200
3,Cc1cc2c(C(C)C)c(O)c(O)c(C=O)c2c(O)c1-c1c(C)cc2c(C(C)C)c(O)c(O)c(C=O)c2c1O [GOSSYPOL],150
4,COc1cc2c(ccc3c4cc(OC)c(OC)cc4c[n+](C)c23)cc1O.[Cl-] [FAGARONINE],270
